Series [1] concerns hiPSC-derived NSCs undergoing differentiation towards neurons and astrocytes. The series is described as follows: In vitro biokinetics of CPF and metabolites in medium, cells and plastic (HPLC-UV). Here is the method:
The nominal concentration causing 5 % decrease of viability (IC5) was previously identified, extrapolating a dose response curves obtained with six CPF nominal concentrations (0.49, 1.95, 7.81, 31.25, 125, and 500 μM) vs solvent control (0.1 % DMSO) after 14-day treatment by means of resazurin test (CellTiter-Blue® Reagent).
CPF stock solutions were prepared in DMSO and stored in glass at −20 °C until the beginning of each experiment. Freshly prepared treatment solutions were obtained after the dilution of stock solutions in a ratio of […] in serum-free culture medium, keeping DMSO concentration at 0.1 %. Aliquots of the stock and daily treatment solutions (considered as the starting solutions) were stored at −80 °C until HPLC analysis.
Cells (about 21,000 cells/cm^2), seeded on 6 well PDL- and reduced growth factor Matrigel coated plates, were treated during the differentiation process, starting from day 7 of differentiation up to day 21, with treatment/medium refreshed twice a week (Fig. 2). Exposure to CPF of cells or pre-coated wells (without cells) was initiated by adding 2 mL per well of the corresponding treatment solutions or the vehicle (control wells). Four biological replicates were carried out.
A first set of experiments was used to fine tune the experimental conditions, including time points and exposure conditions, taking into account possible metabolism, bioaccumulation and/or physical sequestration processes. All the fractions (i.e., medium, cells, plastic and matrix-bound fractions) were collected, at the first and last day of treatment, at different time points (i.e., 1, 3, 6, 24 h) selected on the basis of the intrinsic features of the compound and the cellular model. At each time point, the medium was transferred into amber glass vials and stored at −80 °C until HPLC analysis. Cells were washed twice with PBS (2 mL/well); to avoid dehydration of the cells, an aliquot of PBS was kept in each well. PBS was then removed, cells were scraped from the wells in 250 μL MeOH, additional 100 μL MeOH were added for washing and all the content was transferred into amber glass vials. The same procedure was applied also to the wells used for measuring matrix-bound material (without cells). Cells were then sonicated until they were fully homogenized (about 15 min). All fractions, including DMSO from control wells and MeOH used to measure possible plastic binding, were stored at −80 °C until HPLC analysis. Four biological replicates were carried out.
All samples from kinetic experiments were analysed using high-performance liquid chromatography (HPLC), as previously described, to quantify CPF and its metabolites. Prior to analysis, one volume of the collected medium samples was mixed with three volumes of MeOH. All the mixtures, including cell and matrix-bound samples, were vortexed for 30 s and then centrifuged (Eppendorf 5417R; 4 °C, 2500 rpm) for 10 min. Preliminary assays were conducted to evaluate CPF and its metabolite recovery after the solvent extraction procedure from each type of sample. […] Plastic-bound fraction was injected as such.
The HPLC system included a PerkinElmer Series 200 analytical pump, a Restek™ Pinnacle ODS Amine C18 column, a PerkinElmer LC 235 Diode Array Detector and the PerkinElmer Totalchrom™ 3.1.2 software for data acquisition and evaluation. For analysing CPF, CPFO and TCP, a gradient elution was applied at a flow rate of 1.0 mL/min, starting at 80:20 % methanol /buffer (Tris /HCl 50 mM EDTA 1 mM pH 7.4) and reaching after 4 min a percentage of 70:30 (v/v), respectively, maintained for 16 min. Then, the gradient returned to the initial concentration before the next sample was injected.

For series [2] the following is noted: cited from earlier work.
The conditions of series [3]: prenatal exposure to CPF; cited from earlier work.

For `Oc1nc(Cl)c(Cl)cc1Cl` [TCP, 3,5,6-trichloro-2-pyridinol], the “TCP in the intracellular compartment or adsorbed to the plastic” value in series [1] (any time point) is “No TCP was detectable”. Also, the “TCP present in the medium” value in series [1] (first day of treatment with 21 μM CPF) is listed as 6–18%; in series [1] (last day of treatment with 21 μM CPF), 7–14%. Consider `CCCCc1oc2ccccc2c1C(=O)c1cc(I)c(OCCN(CC)CC)c(I)c1` [amiodarone, reference compound], for which, in series [2], the “log Kow” value is 7.6.

In the case of `CCOP(=O)(O)OCC` [diethylphosphate], the “level in human postpartum meconium” value in series [3] was 0.80 to 3.20 µg/g. Regarding `CCOP(O)(=S)OCC` [diethylthiophosphate], the “level in human postpartum meconium” value in series [3] is 2.0 to 5.6 µg/g. On to chlorpyrifos-oxon [CPFO], for which the “CPFO adsorbed to the plastic” value in series [1] (any time point) is “no CPFO adsorbed to the plastic was detectable”. Moreover, the CPFO detection result in series [1] (last day of treatment) is recorded as “no longer detectable”.

The values above are taken from publication PMC7772889, “Integrating biokinetics and in vitro studies to evaluate developmental neurotoxicity induced by chlorpyrifos in human iPSC-derived neural stem cells undergoing differentiation towards neuronal and glial cells” (Reproductive Toxicology (Elmsford, N.y.), 2020).
